Measurements: patent US10717758B2, “D-amino acid compounds for liver disease” (priority 2012, dated 2020)

Tests used:
[1] = Plasma and liver PK after single oral dose (Example 4C); assay type: in vivo, CD-1 mice; details: at 1 μmol/kg; single oral dose 10 mg/kg for 804a or 25 mg/kg for 804b
Experimental: Plasma samples were analyzed for 2′-methyl-2′-fluorouridine (2′-Me-2′-F-U) by LC-MS/MS. The internal standard (IS) was D3-2′-F-2′-Me-G. For protein precipitation and extraction, each plasma sample (50 μL) was treated with 500 μL of 0.2% formic acid in acetonitrile and 20 μL of the internal standard working solution. After vortexing and centrifugation, 500 μL of the sample extracts were transferred to a new plate, dried under N2 at ˜28° C. and reconstituted with 75 μL of 0.2% FA in water. The extracts were chromatographed on an Aquasil C18 column using a gradient system of 0.2% formic acid in water and acetonitrile. The analytes were detected and quantified by tandem mass spectrometry in positive ion mode on an MDS Sciex API5000 equipped with a Turbo Ionspray® interface. The calibration range was 0.500 (LLOQ) to 200 ng/mL in mouse plasma. The corresponding range for molar units is 1.92 to 769 pmol/mL.
Liver samples were analyzed for the active species 2′-methyl-2′-fluorouridine triphosphate (2′-Me-2′-F—U TP) by LC-MS/MS. […] Internal standard solution was added to the homogenate followed by neutralization with 20% ammonium hydroxide solution and addition of 500 μL 1% formic acid. The tissue samples were extracted by weak anion exchange solid phase extraction (SPE). […]

[2] = system: Huh-7 cells; assay: Release of active metabolite in Huh-7 cells; assay type: in vitro ADME, human; details: Table 7
[3] = target: T1, cathepsin A (CatA) (Homo sapiens, UniProt P10619); assay: Hydrolysis of prodrugs by Cathepsin A; assay type: in vitro ADME
T1 sequence (P10619 29-326 limits assumed): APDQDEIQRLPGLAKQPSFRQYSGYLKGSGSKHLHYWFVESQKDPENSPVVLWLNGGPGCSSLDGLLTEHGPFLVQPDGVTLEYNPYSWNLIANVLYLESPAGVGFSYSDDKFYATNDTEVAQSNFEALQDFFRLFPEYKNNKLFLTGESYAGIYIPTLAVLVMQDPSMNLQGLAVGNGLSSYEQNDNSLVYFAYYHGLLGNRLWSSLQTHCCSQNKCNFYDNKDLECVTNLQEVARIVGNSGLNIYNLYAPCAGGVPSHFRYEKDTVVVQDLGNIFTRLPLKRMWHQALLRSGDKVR
T1 sequence (P10619 327-480 limits assumed): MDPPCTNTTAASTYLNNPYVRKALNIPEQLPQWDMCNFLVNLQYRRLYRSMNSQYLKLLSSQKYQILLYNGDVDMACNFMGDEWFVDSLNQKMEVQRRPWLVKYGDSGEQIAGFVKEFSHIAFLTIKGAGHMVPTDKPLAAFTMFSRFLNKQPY

[4] = Liver TP formation and liver targeting in vivo (Example 6, Table 7); parameters: species or system mice and monkey
From the text: The in vitro antiviral inactivity of Z4 and Z2 is thought to reflect an inability of Huh-7 replicon cells to metabolize the prodrug moiety.

## CC(C)OC(=O)[C@H](C)N[P@@](=O)(OC[C@H]1O[C@@H](n2ccc(=O)[nH]c2=O)[C@](C)(F)[C@@H]1O)Oc1ccccc1 [PSI-7976, reference compound]
[1]
  Ms Plasma 2′-Me-2′-F-U AUC: 0.00115 M·s
[2]
  Huh-7 AUC0-72: 6527 pmol*hr/10^6cells
[3]
  Hydrolysis by CatA: hydrolyzed
[3]; @ 18 h, 100 μM compound, 37° C., pH 6.0
  CatA hydrolysis: 10%
[4]
  Liver TP: 310 pmol·h/g
